Measurements taken from patent US12441811B2, “Compositions and methods for treating serpin B13 disorders” (REGENTS OF THE UNIVERSITY OF MINNESOTA, priority 2019, dated 2025).

Key:
Notch1 receptor = test: Examination of Notch1 receptor in embryonic pancreas (Western blot, flow cytometry, qPCR); format: cell-based, mouse
Description: Staining for flow cytometry. BD LSRFortessa X-20, LSR-II and FACSCanto-II were used for FACS analysis. Positive populations of cells were gated and counted using FlowJo ver.10 software. For the islet cells isolated from adult mice, intracellular staining to detect glucagon and insulin was used to count single-positive as well as double-negative cells. In the cells isolated from embryonic pancreas explants, intracellular staining was performed to detect Ngn3, CK19, and active Notch, and extracellular staining was used to detect the extracellular Notch domain, EpCAM, CD31 and CD45.
Western blotting. Pancreatic tissues were processed from E16.5 embryos as single samples and directly used for lysis. Embryonic pancreas explants from E12.5 embryos were cultured in vitro with anti-serpinB13 mAb (or control Ab) for 24 or 48 hours, then, three explant cultures were combined and lysed. The samples were washed two times in ice-cold PBS and lysed with gentle pipetting for 10 minutes with additional tap-vortexing for 15 minutes in RIPA buffer containing Halt protease inhibitors (cat. no. 1862209, Thermo Fisher Scientific). Equal amounts of protein in each sample were run under reducing conditions on Bis-Tris BOLT gradient gel (4-12%) or NUPAGE Tris-acetate gradient gels (4-12%) (both from Thermo Fisher Scientific), and transferred onto […] nitrocellulose or activated PVDF membranes. The membranes were blocked with 5% skim milk and stained with primary and secondary antibodies, as indicated. The Western blots were developed with SuperSignal West Pico Chemiluminescent Substrate or West Femto Maximum Sensitivity Substrate (cat. nos. […] and […], respectively; both from Thermo Scientific), and scanned using the ChemiDoc™ MP Imaging System (Bio-Rad, Hercules, […], USA).
Quantitative real-time PCR. Total RNA from embryonic pancreases was extracted using the RNeasy UCP Micro kit (cat. no. 73934; Qiagen, Hilden, Germany) to measure expression of the Notch1 gene. One hundred to […] of the total RNA per group was reverse transcribed to cDNA using the iScript cDNA Synthesis Kit (cat. no. 1708891; Bio-Rad). Quantitative PCR assays were performed on an Applied Biosystems QuantStudio 3 real-time PCR system using cDNA and the Kapa Sybr Fast reagent (cat. no. 0795959100; Roche). Actin-R was used as a reference gene. The primer sequence for Notch1 was as follows: forward—5′[…]3′ and reverse—5′ […]3′.

[1] = system: Ngn3+ endocrine progenitor cells; test: Ngn3+ cells in embryonic pancreas explants (E12.5) cultured in vitro; format: cell-based, mouse; settings: for number of Ngn3+ endocrine progenitor cells: E12.5 explants, recombinant protein 10 μg/mL, 72 hours vs buffer
Description: Isolation and culture of embryonic pancreas explants. The isolation and culture of embryonic pancreas explants was performed as described elsewhere, with minor modifications.
Processing of pancreatic tissue for immunofluorescence microscopy. The pancreatic tissues were isolated and fixed either overnight (adult pancreases), or for one hour (embryonic pancreas explants), in 2% PFA (pH 7.4), followed by a two-step saturation process: first in a 30% sucrose solution in PBS and then in optimal cutting temperature (OCT) compound. After complete saturation, the tissues were imbedded in OCT using Cryomold and then snap frozen in an ethanol/dry ice bath. The OCT blocks were serially cut through the entire organ to obtain representative sections every 600 μm (6 to 8 sections per adult pancreas), 50 μm (12 to 14 sections per E16.5 embryonic pancreas), 35 μm (10 to 12 sections per E14.5 embryonic pancreas), or 15 μm (10 to 12 sections per E12.5 embryonic pancreas cultured for 1 to 3 days). For the embryonic linage tracing experiments, three largest sections were taken for the analysis. For all other experiments involving immunofluorescence microscopy, all obtained sections were analyzed. […]
The sections from the pancreases of embryos at age E14.5 and E16.5, and newborn pups (OP), were stained with anti-Ngn3 antibody to determine the total number of endocrine progenitors cells for all sections per explant combined (FIG. 9G, FIG. 17A). Alternatively, the sections representing the pancreases of embryos at age E12.5 (which are considerably smaller) were stained with both anti-Ngn3 and anti-CK19 antibodies to determine the fraction of CK19-positive area that was occupied by Ngn3− positive staining (FIGS. 9D, 10A, 10C, 12D, 12G, 12J and FIGS. 15A, 20B). The following formula was used to adjust for any differences in the pancreas size: (Ngn3^+ cell number/μm^2 of CK19^+ cells)×10^5.
Image analysis. Embryonic images were processed with a plugin-Trainable Weka Segmentation v3.2.28 (Hamilton, New Zealand) for ImageJ v.1.52jv software. To classify and quantify the images in unbiased fashion, we defined the following four classes for the analysis: Ngn3^+ cells, the clusters of cytokeratin 19^+ cells, the negatively stained areas, and background (e.g., the area outside of tissue sample). Alternatively, the Visiopharm version 6.0 software (Visiopharm, Hoerholm, Denmark) with Author module was used to create applications to outline Ngn3^+ cells or double positive cells expressing YFP and insulin using preprocessing and postprocessing steps, when necessary. In addition, the Engine module of the Visiophram module was used to execute created applications and unbiasedly analyze the images. For the unbiased quantitative analysis of β-cells and islets in the whole pancreatic sections, Visiopharm Author module was trained to recognize insulin-positive β-cell clusters with diameter greater than 50 μm as well as negatively stained section area. In all studies involving microscopy the treatment assignments were blinded to investigators who performed data analysis.

CC(C)C[C@H](NC(=O)[C@H]1O[C@@H]1C(=O)O)C(=O)NCCCCN=C(N)N [Clone E64, reference compound]
mAb-induced Notch1 degradation fragments in presence of protease inhibitor (Notch1 receptor; E64 1 μM with antibody for 48 hours): almost completely prevented | size of the Ngn3+ cell population ([1]; E12.5 WT explants, E64 10 μM, 48 hours vs DMSO): significantly reduced

chicken ovalbumin: non-inhibitory structural homolog and founding member of the clade B serpin family, used as control [reference compound]
number of Ngn3+ endocrine progenitor cells [1]: not

recombinant CatL: recombinant mouse cathepsin L
cleavage of the extracellular domain of Notch1 (Notch1 receptor; recombinant CatL 2.5 μg/mL for last 4 hours of 48-hour incubation): cleaved | Ngn3 cells ([1]; recombinant mouse cathepsin L 2.5 μg/mL for 4 hours vs buffer): induced additional

B1: recombinant serpinB13 protein: recombinant serpinB13 (mouse and human not distinguished at this place) (protein)
chain: MDSLGAVSTRLGFDLFKELKKTNDGNIFFSPVGILTAIGMVLLGTRGATASQLEEVFHSEKETKSSRIKAEEKEVIENTEAVHQQFQKFLTEISKLTNDYELNITNRLFGEKTYLFLQKYLDYVEKYYHASLEPVDFVNAADESRKKINSWVESKTNEKIKDLFPDGSISSSTKLVLVNMVYFKGQWDREFKKENTKEEKFWMNKSTSKSVQMMTQSHSFSFTFLEDLQAKILGIPYKNNDLSMFVLLPNDIDGLEKIIDKISPEKLVEWTSPGHMEERKVNLHLPRFEVEDGYDLEAVLAAMGMGDAFSEHKADYSGMSSGSGLYAQKFLHSSFVAVTEEGTEAAAATGIGFTVTSAPGHENVHCNHPFLFFIRHNESNSILFFGRFSSP
number of Ngn3+ endocrine progenitor cells [1]: downregulate

B2: mouse recombinant serpinB13: recombinant serpinB13 of mouse (protein)
chain: MDSLGTAATQFLFDLFKELNKTNDGNVFFSPVGISTAIGMIILGTRGATASELQKVLYTEQGTESSRIKSEEEEIEKREEIHHQLQMLLTEISKFSNDYDLIISNRLFGEKTYLFLQKYIDYVEKYYHASLEPVDFVNAADESRKKINSWVESQTNVKVKDLFPEGSLNSSTKLVLINTVYFKGLWDREFKKEHTKEEDFWLNKNLSKPVQMMALCSSFNFTFLEDLQAKIVGIPYKNNDISMFVLLPNDIDGLEKIMDKMSPEKLVEWTSPGHLEQRRVDLRLPRLQVEETYDLEPVLEAVGIHSAFSEHADYSGMSARSGLHAQNFLHRSFLVVTEEGVEATAGTGVGLKVSSAASCELVHCNHPFLFFIRHRESDSILFFGKFSSP
number of Ngn3+ endocrine progenitor cells [1]: significant drop

B3: human recombinant serpinB13: recombinant human serpinB13 expressed in baculovirus (protein)
chain: MDSLGAVSTRLGFDLFKELKKTNDGNIFFSPVGILTAIGMVLLGTRGATASQLEEVFHSEKETKSSRIKAEEKEVIENTEAVHQQFQKFLTEISKLTNDYELNITNRLFGEKTYLFLQKYLDYVEKYYHASLEPVDFVNAADESRKKINSWVESKTNEKIKDLFPDGSISSSTKLVLVNMVYFKGQWDREFKKENTKEEKFWMNKSTSKSVQMMTQSHSFSFTFLEDLQAKILGIPYKNNDLSMFVLLPNDIDGLEKIIDKISPEKLVEWTSPGHMEERKVNLHLPRFEVEDGYDLEAVLAAMGMGDAFSEHKADYSGMSSGSGLYAQKFLHSSFVAVTEEGTEAAAATGIGFTVTSAPGHENVHCNHPFLFFIRHNESNSILFFGRFSSP
number of Ngn3+ endocrine progenitor cells [1]: significant drop
